{"source": "patent US5484803A", "about": "“Transcutaneous in vivo activation of photosensitive agents in blood” (priority 1995, dated 1996)", "key": {"[1]": {"test": "Body and organ weights and gross autopsy two weeks post-treatment", "type": "in vivo, Balb/c mice", "experimental": "(§1) Six Balb/c mice (22±1 g weight) were prepared as described above. Five mice were injected twice (24 hour interval) with BPD from DMSO stock (not liposomal BPD) and exposed to light 1 hour after the injection. One mouse was not injected but was exposed to light (light-only control). During the first treatment the mice were injected with 15 μg BPD/mouse in 200 μl of PBS. During the second treatment the mice were injected with 20 μg BPD/mouse (0.9 mg/kg). A single mouse was used as a control for both treatments.\n(§2) Immediately post-injection (on both occasions) the animals were kept for 1 hour in the dark and then were placed in individual plastic containers (9×4×5 cm), which were placed in the light box and exposed to light. The individual mice were removed from the light box at different intervals: 15, 30, 45, 60 and 75 min, respectively. The light doses delivered at the surface of the skin were 27, 54, 81, 108 and 135 J/cm^2, respectively. On the second occasion the same light doses were used; however, mice receiving higher light doses on day 1 received lower doses on day 2. The control mouse was exposed to light for 60 min on both occasions. During light exposure, the mice were constantly observed for signs of discomfort or itching. After the second light exposure, the mice were observed daily for a period of 2 weeks for appearance of the skin and general pattern of behavior.\nTwo weeks post-treatment blood samples were obtained from each mouse by a heart puncture, under halothane anesthesia. Then the mice were sacrificed and autopsied. Their spleen, liver and kidneys were weighed."}, "Red blood cells": {"system": "Red blood cells", "details": "after the virucidal treatment; cited from earlier work"}, "P815 cells": {"system": "P815 cells", "test": "Surviving clonogenic P815 cells in mouse blood", "type": "in vivo, DBA/2 mice", "details": "average of 3 mice/group", "experimental": "Male mature DBA/2 and Balb/c mice were injected intravenously with P815 and L1210 cells, respectively, preincubated for 1 hour with BPD (liposomal) at 100 ng/ml. Immediately before animal injection, an additional 2 μg of BPD was added to the syringes containing cells. […] One group of mice (shaved and depilated) was exposed immediately to red light (600-900 nm) in the light box for 1.5 hours (162 J/cm^2); the other group was kept in the dark as the control.\nImmediately after exposure to light, blood samples were obtained by a heart puncture under halothane anesthesia. The concentration of BPD in plasma of light-exposed and control mice was determined by fluorescence. The number of clonogenic tumor cells in mouse blood was determined by culturing blood samples in culture medium supplemented with 10% bovine serum, using a limiting dilution assay protocol."}, "mice skin": {"system": "mice skin", "test": "Skin photosensitivity tests (skin and behaviour after double treatment)", "type": "in vivo, Balb/c mice", "text": "Male Balb/c mice (7-11 weeks old; Charles River, Canada) were used in these studies, unless otherwise specified. Balb/c mice were chosen for the studies because of the lack of pigment in their skin. Shaving and depilation removed the hair very effectively from the entire body except the head. Then, the mouse skin appeared quite transparent. Internal organs, especially dark red organs such as liver and spleen, were visible through the skin. The mice were shaved and depilated with a commercially available depilator (Neet® or Nair®) 5 days before being used in the experiments. Control mice, injected with BPD but not exposed to light, were not shaved. Following injection the mice were kept in the dark for various lengths of time, as described below. Before and after the experiments the mice were kept in an animal facility with 12 hours of light and 12 hours of dark daily. After the experiments, in order to reduce the amount of light reaching the mice, their cages were placed on the lowest shelf with aluminum foil placed above them.\nThe light box was custom built at a workshop at the University of British Columbia. It was composed of two layers of 14 75 W tungsten-halogen reflector bulbs (General Electric), which illuminated the treatment area from the top and from the bottom. Light was filtered by 1) a set of filters comprising yellow and red plastic films which absorbed most of the light at wavelengths shorter than 600 nm and 2) 15 mm thick water filters which absorbed light above 900 nm. Cooling was provided by a steady flow of cold water in the water filters and by a set of 5 fans. The light intensity was measured by an IL 1350 Photometer (International Light).\nThe intensity of light delivered by the top and bottom sets of bulbs was not uniform. The bottom set delivered 33-40 mW/cm^2 as measured at floor level of the exposure chamber, while the top set delivered 27-33 mW/cm^2 as measured at the skin surface of the backs of the animals. The range described resulted from inconsistent influence at the horizontal plane of irradiation. In addition, mice moved about during light exposure, so that at various times different parts of their skin received different amounts of light. Therefore, the doses delivered to the surface of mice skin must be approximated and the calculations have been based on an intensity of 30 mW/cm^2.\nas §1\nas §2, with “During light exposure, the mice were constantly observed for signs of discomfort or itching. After the second light exposure, the mice were observed daily for a period of 2 weeks for appearance of the skin and general pattern of behavior.” left out"}, "[2]": {"details": "Drug + Light, individual mice, 2 weeks post-treatment"}}, "note": "Several values for one entry are separate records, joined by “and”; a condition that tells them apart may be missing. Equal values may be shown once."}
{"substance": "benzoprophyrin derivative monoacid ring A [BPD]", "values": [{"measurement": "gross morphology and weights of internal organs", "setting": "[1]; 2 weeks after double treatment, liver, spleen, kidneys", "result": "normal"}, {"measurement": "toxicity (gross examination of liver, spleen, kidneys; blood parameters)", "setting": "[1]; 2 weeks post-treatment", "result": "no toxicity was detected"}, {"measurement": "Kidneys weight", "setting": "[1]; [2]", "result": "0.172 g and 0.343 g and 0.380 g and 0.396 g and 0.310 g"}, {"measurement": "Liver weight", "setting": "[1]; [2]", "result": "1.105 g and 1.190 g and 1.208 g and 1.348 g and 0.958 g"}, {"measurement": "Spleen weight", "setting": "[1]; [2]", "result": "0.077 g and 0.106 g and 0.094 g and 0.108 g and 0.078 g"}, {"measurement": "Total Body Weight", "setting": "[1]; [2]", "result": "22 g and 23 g and 24 g and 25 g and 21 g"}, {"measurement": "red blood cell viability", "setting": "Red blood cells", "result": "appeared viable"}, {"measurement": "Surviving cells in blood", "setting": "P815 cells; Dark control", "result": "50 P815 cells/2 ml blood/mouse"}, {"measurement": "Surviving cells in blood", "setting": "P815 cells; Light exposed (162 J/cm^2)", "result": "8 P815 cells/2 ml blood/mouse"}, {"measurement": "signs of skin photosensitization", "setting": "mice skin; 0.9 mg/kg, red light 1 hour after injection, 27 to 135 J/cm^2, two weeks", "result": "did not show any signs of skin photosensitization"}, {"measurement": "gross changes in skin", "setting": "mice skin; Balb/c, i.e. 15 then 20 μg BPD/mouse (DMSO stock), light 27-135 J/cm^2, immediately post-exposure and two weeks", "result": "No gross changes were observed in mice skin"}, {"measurement": "effect of the same light dose at lower plasma levels", "setting": "mice skin; as demonstrated in Example 1", "result": "apparently harmless"}, {"measurement": "behaviour / discomfort under the light", "setting": "mice skin; both days of treatment, 27-135 J/cm^2, except occasional scratching", "result": "behaved normally under the light, without any signs of discomfort"}, {"measurement": "behavioral changes", "setting": "mice skin; two weeks after double treatment", "result": "No behavioral changes were observed"}]}
